Reference: patent publication US12678418B2, “Compositions and methods for the treatment of threatened respiratory failure caused by coronavirus infection and disease” (ENCYT TECHNOLOGIES, INC., priority 2020, dated 2026)
“Also recorded” adds a separate entry of the source. Like-named read-outs stand apart in the source and are kept apart here. Ends that are not written are not given here.

Experiments:
Neu1 sialidase [1] = target: T1, Neu1 sialidase (Mus musculus, UniProt O35657); format: cell-based; settings: for inhibition of lipopolysaccharide (LPS) induced sialidase activity: live BMC-2 macrophage cells, 1-2 mM, compared to LPS positive control; for inhibition of sialidase (Neu1) activity associated with TLR ligand treated live macrophage cells: cell surface of macrophage and dendritic cells
T1 construct: […]; endogenous in cells; host or cells: BMC-2 macrophage cells
Description: Central to this process is that Neu1 and not Neu2,-3 and -4 forms a complex with TLR-2,-3 and -4 on the cell surface of naïve macrophage cells. […] Endotoxin LPS binding to TLR4 induces Neu1 with subsequent activation of NFκB and the production of nitric oxide and proinflammatory IL-6 and TNFα cytokines in primary and macrophage cell lines.

Neu1 sialidase [2] = target: T1, Neu1 sialidase; settings: cited from earlier work; for inhibition of the LPS-induced sialidase activity: live BMC-2 macrophage cells
Neu1 sialidase [3] = assay: Sialidase activity in live RAW-blue macrophage cells, 4-MUNANA substrate (Example 1); format: cell-based, mouse; settings: for inhibition of sialidase activity associated with S-protein: FIG. 2B; for inhibition of sialidase activity associated with S-protein / inhibition of sialidase activity associated with S-protein (UK variant): inhibitor 200 μg/mL, 0.318 mM 4-MUNANA; for inhibition of sialidase activity associated with S-protein (UK variant): FIG. 2C
MMP3 = MMP3 (Homo sapiens, UniProt P08254); settings: cited from earlier work
MMP3, sequence (P08254 100-477, species assumed): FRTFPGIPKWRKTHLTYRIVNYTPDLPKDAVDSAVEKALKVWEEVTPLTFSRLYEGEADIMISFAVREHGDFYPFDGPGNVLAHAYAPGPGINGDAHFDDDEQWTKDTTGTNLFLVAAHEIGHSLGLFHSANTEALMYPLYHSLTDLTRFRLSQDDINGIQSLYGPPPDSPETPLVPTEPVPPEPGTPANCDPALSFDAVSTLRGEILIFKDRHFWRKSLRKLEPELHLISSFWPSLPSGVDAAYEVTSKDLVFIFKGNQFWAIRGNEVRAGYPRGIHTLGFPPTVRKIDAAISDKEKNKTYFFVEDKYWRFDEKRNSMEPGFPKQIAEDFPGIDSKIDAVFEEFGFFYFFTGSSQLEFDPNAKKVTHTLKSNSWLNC

MMP1 = target: T2, MMP1 (Homo sapiens, UniProt P03956); settings: read-out: IC50 for MMP1; cited from earlier work
T2 sequence (P03956 100-469): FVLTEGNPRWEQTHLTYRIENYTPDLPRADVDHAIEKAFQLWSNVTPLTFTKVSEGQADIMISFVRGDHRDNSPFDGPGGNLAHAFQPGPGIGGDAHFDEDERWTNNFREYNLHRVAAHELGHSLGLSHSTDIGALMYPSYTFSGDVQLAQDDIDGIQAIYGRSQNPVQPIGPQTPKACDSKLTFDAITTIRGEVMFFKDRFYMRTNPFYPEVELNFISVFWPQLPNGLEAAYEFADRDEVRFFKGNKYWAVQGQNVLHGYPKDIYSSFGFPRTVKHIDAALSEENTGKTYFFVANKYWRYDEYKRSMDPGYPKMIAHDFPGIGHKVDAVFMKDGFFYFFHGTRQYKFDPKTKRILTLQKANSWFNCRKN

MMP13 = MMP13 (Homo sapiens, UniProt P45452); settings: cited from earlier work
[4] = tested on: SEAP gene inducible by NF-kB and AP-1 in RAW-Blue cells; assay: SEAP reporter assay in RAW-Blue cells (Example 2); format: cell-based, mouse; settings: for expression of SEAP (reflective of NF-kB expression): FIG. 3A-3D, various concentrations
Protocol: RAW-Blue™ cells (mouse macrophage reporter cell line, Invivogen, San Diego CA) derived from RAW 264.7 macrophages were grown in a culture medium under the selection of Zeocin™. The cells stably express a secreted embryonic alkaline phosphatase (SEAP) gene inducible by NF-kB and AP-1 transcription factors. Upon stimulation, RAW-Blue™ cells activate NF-kB and AP-1 leading to the secretion of SEAP, which is detectable and measurable using QUANTI-Blue™, a SEAP detection medium (Invivogen). Supernatants (20 uL) after 24 hr reaction from treated RawBlue cells is added to QuantiBlue reagent (180 uL), and the readout of color reaction was done after 6 hrs. QUANTI-Blue™ is a colorimetric enzyme assay developed to determine the activity of any alkaline phosphatase present in a biological sample (supernatants) and was prepared according to manufacturer's instructions. RAW-Blue™ cells are resistant to Zeocin™ and G418.
A cell suspension of 550,000 RAW-blue cells/mL in fresh growth medium was prepared, and 180 μL of cell suspension (~100,000 cells) was added to each well of a Falcon flat-bottom 96-well plate (Becton Dickinson). After different incubation times, indicated dosages of LPS, bradykinin, angiotensin 1-7, neuropeptide FF, and S-protein alone or together with indicated dose-dependent OP were added to each well. The plates were incubated at 37° C. in a 5% CO2 incubator for 18-24 h. 180 μL of QUANTI-Blue™ solution was added to each well of a flat-bottom 96-well plate, followed by 20 μL of supernatant from stimulated RAW-blue cells. The plate was incubated for 30 min to 3 h at 37° C. and the SEAP levels were determined using a spectrophotometer at 620-655 nm. Each experiment was performed in triplicate.

[5] = tested on: NFκB activation, nitric oxide, IL-6 and TNFα in primary or macrophage cell lines; assay: LPS/TLR ligand induced NFκB activation, nitric oxide and pro-inflammatory cytokines in macrophage cells; format: cell-based; settings: macrophage and dendritic cells
Description: Thus, there is evidence that the activation of Neu1 sialidase in complex with TLR-2,-3 and -4 receptors on the cell surface of macrophages is inhibited by the neuraminidase inhibitor OP. […] On the basis that Mas GPCR potentiates receptor biased-induced TLR transactivation via NMBR-Neu1-MMP9 crosstalk on the cell surface alveolar macrophages, then OP will inhibit the pro-inflammatory responses in the lungs and reduce the inflammatory process.

[6] = cited from earlier work
[7] = tested on: NFκB activation, nitric oxide, IL-6 and TNFα in primary or macrophage cell lines; settings: cited from earlier work
MMP9 = MMP9 (Homo sapiens, UniProt P14780); settings: cited from earlier work
MMP9, sequence (P14780 94-707, species assumed): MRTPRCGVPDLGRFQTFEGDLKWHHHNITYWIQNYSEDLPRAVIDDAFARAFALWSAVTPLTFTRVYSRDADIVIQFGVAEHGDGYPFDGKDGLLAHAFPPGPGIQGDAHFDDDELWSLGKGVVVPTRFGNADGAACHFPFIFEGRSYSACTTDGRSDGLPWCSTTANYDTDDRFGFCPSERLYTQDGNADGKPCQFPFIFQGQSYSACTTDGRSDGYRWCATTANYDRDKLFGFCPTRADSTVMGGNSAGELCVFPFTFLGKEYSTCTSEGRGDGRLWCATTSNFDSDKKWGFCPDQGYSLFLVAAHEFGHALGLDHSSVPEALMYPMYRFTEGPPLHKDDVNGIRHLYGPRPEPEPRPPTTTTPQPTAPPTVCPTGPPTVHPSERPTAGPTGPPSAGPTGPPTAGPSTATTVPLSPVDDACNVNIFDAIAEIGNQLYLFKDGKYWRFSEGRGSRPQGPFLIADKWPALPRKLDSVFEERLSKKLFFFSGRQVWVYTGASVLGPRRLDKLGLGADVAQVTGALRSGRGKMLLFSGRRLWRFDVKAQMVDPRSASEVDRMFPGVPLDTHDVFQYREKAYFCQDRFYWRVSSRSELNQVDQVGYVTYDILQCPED

MMP7 = MMP7 (Homo sapiens, UniProt P09237); settings: read-out: IC50 for MMP7; cited from earlier work
MMP7, sequence (P09237 95-267, species assumed): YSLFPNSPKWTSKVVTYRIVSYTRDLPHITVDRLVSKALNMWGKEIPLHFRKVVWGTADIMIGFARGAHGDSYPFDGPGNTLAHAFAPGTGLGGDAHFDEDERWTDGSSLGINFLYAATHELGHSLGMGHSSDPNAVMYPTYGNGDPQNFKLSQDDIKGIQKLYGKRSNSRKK

neuraminidase 1 = target: T3, neuraminidase 1 (Homo sapiens, UniProt Q99519); assay: Neu-1 activity in live PANC-1 cells stimulated with EGF; format: cell-based; settings: FIG. 5; aspirin 1.6 mM-6.4 mM, 30 ng/mL EGF, 0.318 mM 4-MUNANA
T3 construct: endogenous in cells; host or cells: PANC-1
Protocol: Live PANC-1 cells were pre-treated with increasing concentrations of aspirin (1.6 mM-6.4 mM), followed by stimulation with 30 ng/mL of EGF to initiate Neu-1 activity. 0.318 mM 4-MUNANA substrate was added to quantify Neu-1 activity.

[8] = target: mammalian neuraminidase 1 (Homo sapiens, UniProt Q99519); assay: Aspirin with OP on mammalian neuraminidase 1
Neu1 = settings: live macrophage cell lines and primary bone marrow macrophage cells from wild-type mice, not from Neu1-deficient mice; cited from earlier work
[9] = target: LPS induced sialidase activity in live BMA macrophage cells (Mus musculus, UniProt O35657); settings: clopidogrel bisulfate 280 μM and 500 μM for 2 min, 5 μg/ml LPS, 400 μM OP
carboxylesterase = carboxylesterase (Homo sapiens, UniProt P23141); settings: previously determined; cited from earlier work
carboxylesterase, sequence (P23141 18-567): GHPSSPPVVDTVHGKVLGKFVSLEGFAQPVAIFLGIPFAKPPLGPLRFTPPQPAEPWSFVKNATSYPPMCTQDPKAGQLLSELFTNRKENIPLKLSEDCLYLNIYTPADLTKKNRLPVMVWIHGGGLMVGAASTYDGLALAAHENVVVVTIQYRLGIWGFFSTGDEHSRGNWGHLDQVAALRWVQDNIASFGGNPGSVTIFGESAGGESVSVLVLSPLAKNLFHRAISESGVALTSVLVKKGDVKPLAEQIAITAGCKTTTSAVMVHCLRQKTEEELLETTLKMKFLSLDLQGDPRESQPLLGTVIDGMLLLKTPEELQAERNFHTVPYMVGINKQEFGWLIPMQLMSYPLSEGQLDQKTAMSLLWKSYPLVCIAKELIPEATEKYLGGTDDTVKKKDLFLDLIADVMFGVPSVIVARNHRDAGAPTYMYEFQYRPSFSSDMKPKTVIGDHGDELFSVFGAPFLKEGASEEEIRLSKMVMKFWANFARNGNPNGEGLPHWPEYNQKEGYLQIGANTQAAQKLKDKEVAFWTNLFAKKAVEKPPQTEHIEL

human Neu3 sialidase = target: T4, human Neu3 sialidase (Homo sapiens, UniProt Q9UQ49); settings: micromolar range; cited from earlier work
T4 sequence (Q9UQ49 1-428): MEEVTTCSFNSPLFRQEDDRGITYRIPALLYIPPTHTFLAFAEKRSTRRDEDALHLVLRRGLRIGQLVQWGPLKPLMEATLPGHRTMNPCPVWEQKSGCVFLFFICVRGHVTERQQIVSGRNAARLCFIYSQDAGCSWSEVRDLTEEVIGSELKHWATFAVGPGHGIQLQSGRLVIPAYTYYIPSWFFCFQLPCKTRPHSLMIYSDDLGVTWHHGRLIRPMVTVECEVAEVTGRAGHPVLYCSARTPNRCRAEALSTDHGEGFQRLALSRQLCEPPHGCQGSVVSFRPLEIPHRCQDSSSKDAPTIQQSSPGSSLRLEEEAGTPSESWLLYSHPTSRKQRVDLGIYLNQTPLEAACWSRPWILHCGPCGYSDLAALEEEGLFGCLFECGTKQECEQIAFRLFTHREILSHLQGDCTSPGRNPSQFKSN

Neu1 sialidase [10] = settings: 2 mM, lysates from mature dendritic cells; cited from earlier work
Neu3 sialidase = settings: 2 mM, lysates from mature dendritic cells; cited from earlier work

Compound: CCC(CC)[C@H](NC(C)=O)[C@@H]1C[C@@H](C(=O)O)C[C@H]1N=C(N)N [BCX1827]
- inhibition of lipopolysaccharide (LPS) induced sialidase activity (Neu1 sialidase [1]): limited effect
- inhibition of the LPS-induced sialidase activity (Neu1 sialidase [2]): limited significant inhibition

Compound: N[C@@H](CS)C(=O)N1CCn2cc(-c3ccccc3)nc2[C@@H]1CC1CCCCC1 [BIM-46174]
- inhibition of sialidase activity triggered by recombinant S protein and LPS (Neu1 sialidase [3]): inhibited
- inhibition of sialidase activity associated with S-protein (Neu1 sialidase [3]): inhibited
- inhibition of sialidase activity associated with S-protein (UK variant) (Neu1 sialidase [3]): inhibited

Compound: CC(=O)N[C@H]1[C@H]([C@H](O)[C@H](O)CO)OC(C(=O)O)=C[C@@H]1O [DANA, 2-deoxy-2,3-dehydro-N-acetylneuraminic acid]
- inhibition of lipopolysaccharide (LPS) induced sialidase activity (Neu1 sialidase [1]): limited effect
- inhibition of the LPS-induced sialidase activity (Neu1 sialidase [2]): limited significant inhibition

Compound: CNC(=O)[C@H](Cc1c[nH]c2ccccc12)NC(=O)[C@@H](CC(=O)NO)CC(C)C [Galardin]
- IC50 (MMP3): 27 nM

Compound: CCN(CC)Cc1cc(C)c(N(Cc2ccccc2)S(=O)(=O)c2ccc(OC)cc2)c(C(=O)NO)c1 [MMP9 inhibitor]
- IC50 (MMP1): 1050 nM
- IC50 (MMP13): 113 nM
- inhibition of sialidase activity associated with S-protein (Neu1 sialidase [3]): inhibited
- inhibition of sialidase activity associated with S-protein (UK variant) (Neu1 sialidase [3]): inhibited

Compound: CCOC(=O)C1=C[C@@H](OC(CC)CC)[C@H](NC(C)=O)[C@@H](N)C1.O=P(O)(O)O [OP, (3R,4R,5S)-4-acetylamino-5-amino-3-(1-ethylpropoxy)1-cyclohexene-1-carboxylic acid, ethyl ester, phosphate (1:1)]
- inhibition of S-protein triggered activity by SEAP reporter assay ([4]; FIG. 4C, S-protein 10 ug/mL, OP at indicated concentrations): significantly decreased; also recorded: inhibited sialidase activity in a dose dependent manner
- inhibition of sialidase (Neu1) activity associated with TLR ligand treated live macrophage cells (Neu1 sialidase [1]): most potent; also recorded: potent inhibitor
- inhibition of sialidase (Neu1) activity associated with TLR ligand treated live macrophage cells (Neu1 sialidase [1]; listed as oseltamivir phosphate): specifically inhibits
- block of TLR ligand induced NFkB activation, nitric oxide (NO) production and pro-inflammatory cytokines [5]: blocks
- solubility in water [6]: soluble in water
- OP blockage of LPS-induced Neu1 sialidase activity after clopidogrel pretreatment (Neu1 sialidase [2]; BMC-2 cells pretreated with anti-carboxylesterase agent clopidogrel): not affected
- inhibition of the LPS-induced sialidase activity (Neu1 sialidase [2]): completely blocks
- inhibition of sialidase activity triggered by recombinant S protein and LPS (Neu1 sialidase [3]): blocked
- inhibition of sialidase activity associated with S-protein (Neu1 sialidase [3]): inhibited
- inhibition of sialidase activity associated with S-protein (UK variant) (Neu1 sialidase [3]): inhibited
- inhibition of endotoxin LPS induced NFκB activation and production of nitric oxide and pro-inflammatory IL-6 and TNFα cytokines [7]: significantly inhibited

Compound: C1CNCCN1 [PIPZ]
- IC50 (MMP9): 2.7 nM
- IC50 (MMP7): 30 nM
- IC50 (MMP1): 24 nM
- IC50 (MMP3): 18.4 nM

Compound: CC(=O)Oc1ccccc1C(=O)O [aspirin]
- reduction in Neu-1 activity (neuraminidase 1): substantial reduction
- inhibition of mammalian neuraminidase 1 by aspirin together with OP [8]: potentiates the ability of OP to inhibit mammalian neuraminidase 1

Compound: CC(C)CCC[C@@H](C)[C@H]1CC[C@H]2[C@@H]3CC=C4C[C@@H](O)CC[C@]4(C)[C@H]3CC[C@]12C [cholesterol]
- induction of Neu1 activity (Neu1): induce Neu1 activity

Compound: COC(=O)[C@H](c1ccccc1Cl)N1CCc2sccc2C1 [clopidogrel]
- effect on OP's capacity to inhibit LPS induced sialidase activity [9]: no effect
- inhibition of the hydrolysis of OP by carboxylesterase (carboxylesterase): ≤ 90%

Compound: CC(=O)N[C@H]1[C@H]([C@H](O)[C@H](O)CO)OC(C(=O)O)=C[C@@H]1N=C(N)N [zanamivir, 4-guanidino-Neu5Ac2en]
- inhibition of human Neu3 sialidase (human Neu3 sialidase): significantly inhibited
- inhibition of Neu1 sialidase activity (Neu1 sialidase [10]): completely inhibited
- inhibition of lipopolysaccharide (LPS) induced sialidase activity (Neu1 sialidase [1]): limited effect
- inhibition of Neu3 sialidase activity (Neu3 sialidase): completely inhibited
- inhibition of the LPS-induced sialidase activity (Neu1 sialidase [2]): limited significant inhibition

Compound: angiotensin 1-7 (DRVYIHP; Angiotensin 1-7; UniProt P01019 25-31, looked up)
- expression of SEAP (reflective of NF-kB expression) [4]: triggered increased expression of SEAP
- induction of sialidase activity (Neu1 sialidase [3]; FIG. 2A, agonist 20 μg/mL): induces Sialidase activity

Compound: angiotensin-1 (DRVYIHPFHL; Angiotensin-1; UniProt P01019 25-34, looked up) [GPCR agonist]
- induction of Neu1 activity (Neu1): induce Neu1 activity

Compound: angiotensin-2: GPCR agonist, printed as 'angiotensin-1 and -2' (DRVYIHPF; Angiotensin-2; UniProt P01019 25-32, looked up)
- induction of Neu1 activity (Neu1): induce Neu1 activity

Compound: lysophosphatidic acid
- induction of Neu1 activity (Neu1): induce Neu1 activity

Compound: neuropeptide FF (FLFQPQRF; ends and bridges not checked; UniProt O15130 69-76, looked up) [MAS agonist]
- expression of SEAP (reflective of NF-kB expression) [4]: triggered increased expression of SEAP

Compound: thrombin
- induction of Neu1 activity (Neu1): not
